Assay [1] concerns the target T1, AGPAT6 Glycerol-3-phosphate acyltransferase 4 (Homo sapiens, UniProt Q86UL3).
T1 construct: Cells were resuspended in cold PBS on ice and sonicated with a probe sonicator to achieve lysis; endogenous in cells
T1 sequence (Q86UL3 38-456): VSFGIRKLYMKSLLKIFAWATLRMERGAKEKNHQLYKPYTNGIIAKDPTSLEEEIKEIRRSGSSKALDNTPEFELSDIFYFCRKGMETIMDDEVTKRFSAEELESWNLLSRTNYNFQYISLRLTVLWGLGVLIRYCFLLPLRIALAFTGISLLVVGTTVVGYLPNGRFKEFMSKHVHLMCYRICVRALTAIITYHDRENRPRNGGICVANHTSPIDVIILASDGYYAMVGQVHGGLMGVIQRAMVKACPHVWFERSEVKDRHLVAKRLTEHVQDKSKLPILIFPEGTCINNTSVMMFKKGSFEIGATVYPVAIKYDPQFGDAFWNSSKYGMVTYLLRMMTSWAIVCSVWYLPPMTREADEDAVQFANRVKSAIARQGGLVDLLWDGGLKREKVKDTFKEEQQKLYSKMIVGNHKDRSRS
Briefly: Cysteine liganding, probe competition. In kind it is binding. Particulars: for Liganded: AGPAT6 Res# 325, uniprot Q86UL3. In a few lines: (§1)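 Steps: sonicate cells in cold PBS; treat 5 mg/ml lysate with compound (25° C, 1 hr); add desthiobiotin iodoacetamide probe from a 10 mM stock (25° C, 1 hr); precipitate, reduce, alkylate, digest with trypsin; capture labelled peptides on streptavidin for analysis.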

Assay [2] concerns the target T2, SEC63 Translocation protein SEC63 homolog (Homo sapiens, UniProt Q9UGP8).
T2 construct: Cells were resuspended in cold PBS on ice and sonicated with a probe sonicator to achieve lysis; endogenous in cells
T2 sequence (Q9UGP8 1-760): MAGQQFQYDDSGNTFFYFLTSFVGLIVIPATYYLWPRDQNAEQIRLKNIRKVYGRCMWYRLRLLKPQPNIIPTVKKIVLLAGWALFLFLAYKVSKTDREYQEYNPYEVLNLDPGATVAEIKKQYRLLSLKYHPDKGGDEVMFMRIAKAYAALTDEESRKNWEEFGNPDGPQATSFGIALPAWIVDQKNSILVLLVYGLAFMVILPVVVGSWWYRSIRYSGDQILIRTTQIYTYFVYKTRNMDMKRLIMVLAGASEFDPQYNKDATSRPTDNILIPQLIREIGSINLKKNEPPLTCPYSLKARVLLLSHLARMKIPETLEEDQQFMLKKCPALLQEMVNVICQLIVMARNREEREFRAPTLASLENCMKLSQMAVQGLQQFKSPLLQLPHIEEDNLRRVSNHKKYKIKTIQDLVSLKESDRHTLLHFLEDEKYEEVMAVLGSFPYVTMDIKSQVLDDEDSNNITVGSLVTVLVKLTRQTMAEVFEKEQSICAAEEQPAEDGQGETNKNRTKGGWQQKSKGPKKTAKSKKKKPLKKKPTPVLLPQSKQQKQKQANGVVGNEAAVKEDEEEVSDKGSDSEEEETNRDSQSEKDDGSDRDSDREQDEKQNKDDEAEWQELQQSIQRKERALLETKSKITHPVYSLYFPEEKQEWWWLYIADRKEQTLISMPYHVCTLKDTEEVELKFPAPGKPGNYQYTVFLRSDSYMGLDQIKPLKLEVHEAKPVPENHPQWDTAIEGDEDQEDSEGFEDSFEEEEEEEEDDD
Briefly: Cysteine liganding, probe competition. In kind it is binding. In a few lines: as §1

As to `COc1ccc2c(c1)CCCN2C(=O)CCl` [KB02], the Liganded entry in assay [1] was “YES”; in assay [2] (SEC63 Res# 295, uniprot Q9UGP8) it was “YES”.
Take `O=C(CCl)Nc1cc(C(F)(F)F)cc(C(F)(F)F)c1` [KBO3]: the Liganded result in assay [1] is “YES”. Besides, in assay [1] (uniprot Q86UL3), the “100 Max” value amounted to 66.91, the 100 ave was determined as 65.705, the “500 Max” value is on record as 85.19 and the 500 ave is recorded as 85.19. In addition, in assay [2] (uniprot Q9UGP8), the “100 Max” value was found to be 17.92, the 100 ave was determined as 4.99, the “500 Max” value was 55.53 and the 500 ave came out at 48.96.

Source of the values: patent US20200239530A1, “COMPOUNDS AND METHODS OF MODULATING PROTEIN DEGRADATION” (Vividion Therapeutics, Inc., priority 2017, published 2020).
